Experimental data taken from US20140065119A1, “METHODS AND COMPOSITIONS COMPRISING CYCLIC ANALOGUES OF HISTATIN 5 FOR TREATING WOUNDS” (THE UNIVERSITY OF WESTERN ONTARIO, priority 2010, published 2014).
Positions of bridges follow the written chain, without caps; N, C: chain ends. Residues, ends and D or L forms follow the SMILES beside them.

Legend:
[1] = tested on: Primary human neonatal foreskin epithelial cells; experiment: Toxicity in primary cells, phase contrast morphology; type: cell-based
Description: (§1) Toxicological studies of DB2121 in human cells were also undertaken. Primary human neonatal foreskin epithelial cells were used to examine DB2121 toxicity, using a method as described in Min et al. 2004. Nat Biotechnol 22:717-23, the contents of which are incorporated herein by reference. Briefly, when the cells were in log phase, (A) 50 μM DB2121, B) 50 μM Histatin H5, (C) 50 μM ketoconazole, or (D) DMSO was added to the culture medium. At 18 and 36 hours following addition of compound, the foreskin epithelial cells were imaged using phase contract microscopy at 20× magnification. Immediately following the image analysis, proteins were extracted, separated on SDS-PAGE gels, Western blotted, and probed for phosphorylated and non-phosphorylated ERK 1, 2 to monitor cell spreading/migration and/or proliferation of the foreskin keratinocytes. The experiments was repeated three times.

phosphorylated ERK 1, 2 = experiment: Western blot for phosphorylated ERK 1, 2 in primary cells; type: cell-based, human; conditions: 50 μM, primary cell lysates
Description: as §1
It was then investigated whether or not these phenotypes were reflected at the molecular level. The primary cells were lysed and monitored for a marker of proliferation namely, phosphorylated ERK 1, 2.

[2] = tested on: primary human foreskin epithelial cell culture; experiment: Viable cell number (trypan exclusion) in primary cell culture; type: cell-based; conditions: various concentrations, 0, 36 and 72 hours; vs 50 μM ketoconazole; FIG. 3
Description: To determine range of non-toxic concentrations of DB2121, various concentrations of DB2121, 50 μM ketoconazole or DMSO as a control were separately added to primary human foreskin epithelial cell culture. At 0, 36 and 72 hours after addition, the epithelial cells were titrated off the culture plate and the viable cell number was determined. The experiment was performed in triplicate. At 72 hours, the foreskin epithelial cells exposed to the various compounds were imaged at 20× magnification using phase contrast microscopy. For cell counting, the epithelial cells were stained with trypan exclusion stain to monitor cell viability.

[3] = Tolerability in mice, intra-peritoneal injection; type: in vivo
Description: (§2) In addition, mice were able to withstand a concentration of 15 mg/kg of DB2121 when injected via an intra-peritoneal route. When injected into adult rats, a concentration of up to and including 1.5 mg/kg caused no harm when injected intra-venously.

[4] = Tolerability in adult rats, intra-venous injection; type: in vivo
Description: as §2

[5] = Stability in human saliva in vitro by mass spectrometry; type: in vitro ADME; conditions: 1 uM, 37° C.
Description: DB2121 cyclic analogue was determined to be stable in vitro in human saliva for at least 72 hours as determined by mass spectrometry. The cyclic analogue was incubated in human saliva at a concentration of 1 uM and at a temperature of 37° C. in vitro. At various time points from 0 to 72 hours, 1.0 ul aliquots were taken and injected directly into a Micromass Quattro Micro mass spectrometer. Data was collected for a total of 3 minutes. The data was then processed using Mass Lynx 4.0 Analysis software.
The expected average mass of the cyclic histatin analogue in its active form is expected to be 2557.93. […] The peaks within an acceptable error of approximately 1 mass unit corresponding to cyclic histatin analogue were 2556.95 at 0 hours, 2557.65 at 24 hours, and 2557.10 at 72 hours incubation.

Structure (SMILES): N=C(N)NCCC[C@H](NC(=O)[C@H](Cc1c[nH]cn1)NC(=O)[C@@H]1CSSC[C@H](NC(=O)[C@H](Cc2c[nH]cn2)NC(=O)[C@H](Cc2c[nH]cn2)NC(=O)[C@@H](N)CCCNC(=N)N)C(=O)N[C@@H](Cc2ccc(O)cc2)C(=O)N[C@@H](CCCCN)C(=O)N[C@@H](CCCNC(=N)N)C(=O)N[C@@H](CCCCN)C(=O)N[C@@H](Cc2ccccc2)C(=O)N[C@@H](Cc2c[nH]cn2)C(=O)N[C@@H](CCC(=O)O)C(=O)N[C@@H](CCCCN)C(=O)N[C@@H](Cc2c[nH]cn2)C(=O)N[C@@H](Cc2c[nH]cn2)C(=O)N1)C(=O)NCC(=O)N[C@@H](Cc1ccc(O)cc1)C(=O)O [DB2121, N-RHHCYKRKFHEKHHCHRGY-C] (H-RHHCYKRKFHEKHHCHRGY-OH; disulfide 4-15; N-terminus and C-terminus assumed)
- toxicity to human primary cells ([1]; working concentrations of 50 μM, conclusion from morphology and ERK studies): non-toxic
- ERK 1, 2 activation (phosphorylated ERK 1, 2) vs control (phosphorylated ERK 1, 2): not suppressed
- toxicity in primary cultured cells (viable cell number) [2]: minimal toxicity
- concentration (dose) mice were able to withstand [3]: 15 mg/kg
- concentration (dose) that caused no harm [4]: ≤ 1.5 mg/kg
- time stable in human saliva [5]: at least 72 hours

Structure (SMILES): CC(=O)N1CCN(c2ccc(OCC3COC(Cn4ccnc4)(c4ccc(Cl)cc4Cl)O3)cc2)CC1 (centres unmarked) [ketoconazole, Ketoconazole, reference compound]
- cell morphology ([1]; 50 μM, 18 and 36 hours, phase contrast 20×): morphologically normal except when treated with ketoconazole
- ERK 1, 2 activation (phosphorylated ERK 1, 2) vs control (phosphorylated ERK 1, 2): Significant inhibition of ERK 1, 2 activation
